Data set [1] can be described thus: photoredox thiol-yne dihydrothiolation of acetylene by dithiol ([1+1] macrocyclisation, forms S-CH2CH2-S bridge); [Ir(d(tBu)(CF3)ppy)2(dtbbpy)]Cl 1 mol%, DIPEA 1.5 equiv, acetylene balloon, blue LEDs 455 nm. To be noted: the molecule shown is the open-chain precursor, DMF/H2O 50:1, 50.0 mM, 25.0 °C.
The conditions of data set [2]: the molecule shown is the open-chain precursor.

Where two headings read alike, the source gives them in different places.

As to `O=C(CCS)OCCCCCCOC(=O)CCS` [12], the ring closure, isolated yield in data set [1] (18-membered ring, 12.0 h) came to 23%.

Consider `SCCS` [52 substrate (only [2+2])], for which the ring closure, isolated yield in data set [1] (6-membered ring, 12.0 h) was determined as 0%.

With `O=C(CCS)OCc1ccccc1COC(=O)CCS` [34], in data set [1] (16-membered ring, 12.0 h), the ring closure, isolated yield turned out to be 39%.

As for `SCCSCCCSCCS` [66 (dimer 65)], the ring closure, isolated yield in data set [1] (13-membered ring, 12.0 h) turned out to be 17%.

As to `O=C(CS)OCCCCOC(=O)CS` [4], in data set [1] (14-membered ring, 12.0 h), the ring closure, isolated yield came to 32%.

Regarding `O=C(CCS)OCCCCCOC(=O)CCS` [11], the ring closure, isolated yield in data set [1] (17-membered ring, 12.0 h) amounted to 38%.

Turning to `O=C(CCS)OCCOCCOC(=O)CCS` [23], the ring closure, isolated yield in data set [1] (17-membered ring, 12.0 h) stood at 29%.

Regarding `SCCCCCCCCCS` [59 substrate (only [2+2])], the ring closure, isolated yield in data set [1] (13-membered ring, 12.0 h) was 0%.

Take `O=C(CCS)OCc1cccc(COC(=O)CCS)c1` [36]: the ring closure, isolated yield in data set [1] (17-membered ring, 12.0 h) is 37%.

As to `SCCCOc1ccc2ccccc2c1-c1c(OCCCS)ccc2ccccc12` [43 ((R)-BINOL, axial stereo not in SMILES)], the ring closure, isolated yield in data set [1] (16-membered ring, 12.0 h) came to 40%.

Regarding `O=C(CCS)OCCOC(=O)CCS` [5], the ring closure, isolated yield in data set [1] (14-membered ring, 12.0 h) amounted to 42%.

Consider `C[C@H](S)C(=O)NCC(=O)OCCCCCCS` [50 (S per text; SI also names R)], for which the ring closure, isolated yield in data set [1] (16-membered ring, 12.0 h) turned out to be 19%.

With `SCCCCCCCCCCS` [60 substrate (only [2+2])], in data set [1] (14-membered ring, 12.0 h), the ring closure, isolated yield came to 0%.

For the molecule `O=C(COCC(=O)OCCCCCCS)OCCCCCCS` [22], in data set [1] (23-membered ring, 12.0 h), the ring closure, isolated yield stood at 23%.

Consider `O=C(CCS)OCCCOc1ccc2ccc(OCCCOC(=O)CCS)cc2c1` [39], for which the ring closure, isolated yield in data set [1] (25-membered ring, 12.0 h) came to 31%.

For `O=C(CCS)OCCCCCCCCCOC(=O)CCS` [16], in data set [1] (21-membered ring, 12.0 h), the ring closure, isolated yield stood at 24%.

With `SCCCCCCCCS` [58 substrate (only [2+2])], the ring closure, isolated yield in data set [1] (12-membered ring, 12.0 h) stood at 0%.

As to `O=C(OCCCCCCS)C12CC3CC(C1)CC(C(=O)OCCCCCCS)(C3)C2` [31], the ring closure, isolated yield in data set [1] (23-membered ring, 12.0 h) stood at 32%.

Take `SCCCCCS` [56 substrate (only [2+2])]: the ring closure, isolated yield in data set [1] (9-membered ring, 12.0 h) stood at 0%.

In the case of `O=C(CCS)OCCOCCOCCOCCOC(=O)CCS` [25], the ring closure, isolated yield in data set [1] (23-membered ring, 12.0 h) was found to be 27%.

Regarding `O=C(CCS)OCCCOc1ccc2ccccc2c1-c1c(OCCCOC(=O)CCS)ccc2ccccc12` [45 ((R)-BINOL, axial stereo not in SMILES)], in data set [1] (24-membered ring, 12.0 h), the ring closure, isolated yield is 30%.

In data set [2], `O=C(OCCCCCCS)[c-]1cccc1.O=C(OCCCCCCS)[c-]1cccc1.[Fe+2]` [42 (ferrocene)] showed a ring closure, isolated yield of 8%.

On to `O=C(OCCCCCCS)[C@H]1CC[C@H](C(=O)OCCCCCCS)CC1` [29 (trans)], for which the ring closure, isolated yield in data set [1] (24-membered ring, 12.0 h) was determined as 26%.

As for `O=C(CCS)O[C@H]1CCCC[C@@H]1OC(=O)CCS` [49 (1S,2S per text; SI product procedure names 1R,2R)], the ring closure, isolated yield in data set [1] (14-membered ring, 12.0 h) came out at 38%.

With `O=C(CCS)OCCN(CCOC(=O)CCS)c1ccccc1` [27], the ring closure, isolated yield in data set [1] (17-membered ring, 12.0 h) was 38%.

For `O=C(CCS)OCCOCCOCCOC(=O)CCS` [24], in data set [1] (20-membered ring, 12.0 h), the ring closure, isolated yield was 28%.

As to `O=C(OCCCCCCS)C(F)(F)C(F)(F)C(F)(F)C(F)(F)C(=O)OCCCCCCS` [21], in data set [1] (24-membered ring, 12.0 h), the ring closure, isolated yield was found to be 31%.

For `SCCOCCS` [64 (dimer 63)], the ring closure, isolated yield in data set [1] (9-membered ring, 12.0 h) amounted to 23%.

As for `SCCCCS` [55 substrate (only [2+2])], in data set [1] (8-membered ring, 12.0 h), the ring closure, isolated yield came out at 0%.

For the molecule `CC(CC(C)OC(=O)CCS)OC(=O)CCS` (racemic) [8 (+/-)], the ring closure, isolated yield in data set [1] (15-membered ring, 12.0 h) came out at 33%.

For `O=C(CCS)OCCCCCCCCCCCCOC(=O)CCS` [18], the ring closure, isolated yield in data set [1] (24-membered ring, 12.0 h) was determined as 25%.

For `O=C(OCCCCCCS)C(F)(F)C(F)(F)C(=O)OCCCCCCS` [20], the ring closure, isolated yield in data set [1] (22-membered ring, 12.0 h) is 33%.

Consider `O=C(CCS)OCCCCCCCCCCCCCCOC(=O)CCS` [19], for which the ring closure, isolated yield in data set [1] (26-membered ring, 12.0 h) is 21%.

As for `O=C(CCS)OCCOc1ccc(OCCOC(=O)CCS)cc1` [38], the ring closure, isolated yield in data set [1] (22-membered ring, 12.0 h) stood at 22%.

As for `O=C(CCS)OCCN1CCN(CCOC(=O)CCS)CC1` [32], in data set [1] (20-membered ring, 12.0 h), the ring closure, isolated yield came to 21%.

`CC(COC(=O)CCS)COC(=O)CCS` [7]: the ring closure, isolated yield in data set [1] (15-membered ring, 12.0 h) was determined as 27%.

For `O=C(CCS)OCCCOC(=O)CCS` [6], the ring closure, isolated yield in data set [1] (15-membered ring, 12.0 h) was determined as 30%.

Turning to `SCCCCCCS` [57 substrate (only [2+2])], the ring closure, isolated yield in data set [1] (10-membered ring, 12.0 h) was found to be 0%.

For the molecule `O=C(CCS)OCCCCCCCCCCOC(=O)CCS` [17], in data set [1] (22-membered ring, 12.0 h), the ring closure, isolated yield came to 20%.

Consider `OC(CS)C(O)CS` (stereo not shown) [53 substrate (only [2+2])], for which the ring closure, isolated yield in data set [1] (8-membered ring, 12.0 h) came out at 0%.

Regarding `O=C(CCS)OCc1ccc(COC(=O)CCS)o1` [41], in data set [1] (17-membered ring, 12.0 h), the ring closure, isolated yield amounted to 15%.

For the molecule `O=C(CCS)OCc1ccc(COC(=O)CCS)cc1` [37], in data set [1] (18-membered ring, 12.0 h), the ring closure, isolated yield was found to be 8%.

As for `SCCCS` [54 substrate (only [2+2])], the ring closure, isolated yield in data set [1] (7-membered ring, 12.0 h) is 0%.

In the case of `O=C(CCS)OCCCCCOc1ccc2ccccc2c1-c1c(OCCCCCOC(=O)CCS)ccc2ccccc12` [47 ((R)-BINOL, axial stereo not in SMILES)], the ring closure, isolated yield in data set [1] (28-membered ring, 12.0 h) was determined as 29%.

Take `SCCCCCCOc1ccc2ccccc2c1-c1c(OCCCCCCS)ccc2ccccc12` [44 ((R)-BINOL, axial stereo not in SMILES)]: the ring closure, isolated yield in data set [1] (22-membered ring, 12.0 h) stood at 35%.

As for `CN(CC(=O)OCCCCCCS)CC(=O)OCCCCCCS` [28], the ring closure, isolated yield in data set [1] (23-membered ring, 12.0 h) is 24%.

Take `O=C(CCS)OCCCCCCCCOC(=O)CCS` [15]: the ring closure, isolated yield in data set [1] (20-membered ring, 12.0 h) amounted to 22%.

With `O=C(CCS)OCCCCCCCOC(=O)CCS` [14 (=3)], the ring closure, isolated yield in data set [1] (19-membered ring, 12.0 h) was determined as 26%.

In the case of `O=C(CCS)OCCCCOC(=O)CCS` [10], the ring closure, isolated yield in data set [1] (16-membered ring, 12.0 h) stood at 36%.

In the case of `O=C(CCS)OCCOCCOCCOCCOCCOCCOCCOCCOC(=O)CCS` [26], the ring closure, isolated yield in data set [1] (35-membered ring, 12.0 h) came out at 18%.

As to `O=C(CCS)OCc1cccc(COC(=O)CCS)n1` [40], in data set [1] (17-membered ring, 12.0 h), the ring closure, isolated yield was 32%.

Consider `O=C(OCCCCCCS)c1ccccc1S` [33], for which the ring closure, isolated yield in data set [1] (14-membered ring, 12.0 h) was determined as 25%.

Consider `O=C(OCCOc1ccc(OCCOC(=O)c2ccccc2S)cc1)c1ccccc1S`, for which, in data set [1] (22-membered ring), the ring closure, isolated yield worked out at 0%.

Regarding `O=C(CCS)OCCCCCCOc1cccc2c1C1(CC2)CCc2cccc(OCCCCCCOC(=O)CCS)c21` (single isomer, unassigned) [51 ((R)-spirobiindane, stereo not in SMILES)], the ring closure, isolated yield in data set [1] (31-membered ring, 12.0 h) was determined as 21%.

Take `SCCOCCOCCS` [62 (dimer 61)]: the ring closure, isolated yield in data set [1] (12-membered ring, 12.0 h) was 42%.

With `O=C(OCCCCCCS)C12CCC(C(=O)OCCCCCCS)(CC1)CC2` [30], in data set [1] (24-membered ring, 12.0 h), the ring closure, isolated yield came out at 28%.

Take `SCCCCCCCCOc1ccc2ccccc2c1-c1c(OCCCCCCCCS)ccc2ccccc12` [46 ((R)-BINOL, axial stereo not in SMILES)]: the ring closure, isolated yield in data set [1] (26-membered ring, 12.0 h) is 28%.

For the molecule `O=C(CCS)OCCCCCCOc1ccc2ccccc2c1-c1c(OCCCCCCOC(=O)CCS)ccc2ccccc12` [48 ((R)-BINOL, axial stereo not in SMILES)], the ring closure, isolated yield in data set [1] (30-membered ring, 12.0 h) came to 26%.

Take `O=C(CCCCCCC(=O)OCCS)OCCS` [13]: the ring closure, isolated yield in data set [1] (18-membered ring, 12.0 h) came out at 28%.

Take `O=C(COc1ccccc1OCC(=O)OCCCCCCS)OCCCCCCS` [35]: the ring closure, isolated yield in data set [1] (26-membered ring, 12.0 h) came to 24%.

For the molecule `CC(C)(COC(=O)CCS)COC(=O)CCS` [9], the ring closure, isolated yield in data set [1] (15-membered ring, 12.0 h) is 32%.

For the origin of these results see PMC9411599.
